Reference: PMC10447463, “Data-mining unveils structure–property–activity correlation of viral infectivity enhancing self-assembling peptides” (Nature Communications, 2023)
Where “and” joins values, the source holds several entries; their conditions need not be identical. Identical values can stand only once. Like-named read-outs stand apart in the source and are kept apart here.

How the values were obtained:
[1] = assay type: physicochemical
In short: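 Preformed peptide fibrils (1 mg/mL) mixed with 50 µM ThT in PBS, 15 min at RT, fluorescence ex 440/em 488 nm versus PBS blank, triplicates. Zeta potential: peptides at 1 mg/mL in PBS pH 7.4, aged 1 d at RT, diluted in 1 mM KCl, Smoluchowski from electrophoretic mobility.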

[2] = β-sheet content by ATR-FT-IR; assay type: physicochemical
In short: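 Conversion rate: fluorescamine fluorescence (ex 365/em 470 nm, 20 min RT) of 3 kDa filtrate versus unfiltered PNF, CR = 100 − 100 × filtrate/original intensity, triplicates. β-sheet content came from ATR FT-IR of lyophilized 1 mg/mL PNF powder, 64 scans.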

[3] = assay type: physicochemical; parameters: key to Fibril / Fibril Formation / TEM 2cat / Fibril: 1 = fibrils present; 0 non-fibrillar structures; settings: for Fibril: 1 = fibrils present
[4] = ThT fluorescence relative to blank (42.1851851851852 a.u.)
[5] = relative to blank 42.1851851851852 a.u.
[6] = ThT fluorescence relative to blank, blank = 42.1851851851852

KIKIKIKIYYYY [JR7]
Tht rel to blank (42.1851851851852) [1, 4]: 1.259 | FTIR ß-sheet content/ % ([2]; ATR-FT-IR): 0%

KWKWQW [KB3]
Tht category (> 1.5 to blank = +) ([1]; category 1/0): 0 (ThT-inactive (N-Fold <2)) | Tht rel to blank (42.1851851851852) [1, 5]: 1.518 | TEM: 1= fibrils, 0= aggregates (micelle), 0.5 = aggregates and fibrils, -1 = nothing obersved, STD prep [3]: 0

QCKAKAQANMWQ [CK22]
Tht rel to blank (42.1851851851852) [1, 4]: 1.496 | Tht category (> 1.5 to blank = +) ([1]; category 1/0): 0 (ThT-inactive (N-Fold <2)) | Tht rel to blank (42.1851851851852) [1, 5]: 1.496 | TEM: 1= fibrils, 0= aggregates (micelle), 0.5 = aggregates and fibrils, -1 = nothing obersved, STD prep [3]: 0.5

KFKQFFNMWQ [JG5]
Tht rel to blank (42.1851851851852) [1, 4]: 1.589 | Tht rel to blank (42.1851851851852) [1, 6]: 1.589 | Tht category (> 1.5 to blank = +) ([1]; category 1/0): 0 (ThT-inactive (N-Fold <2)) | TEM: 1= fibrils, 0= aggregates (micelle), 0.5 = aggregates and fibrils, -1 = nothing obersved, STD prep [3]: 0

KIKIQIC [TM112 / CN11]
Tht category (> 1.5 to blank = +) ([1]; FigS26): 1 (Tht category (> 1.5 to blank = +)) | Tht rel to blank (42.1851851851852) [1, 4]: 4.12 | Tht rel to blank (42.1851851851852) [1, 6]: 4.12 | Tht category (> 1.5 to blank = +) ([1]; category 1/0): 1 (ThT. Cat is 1, if Rel. ThT >2) | FTIR ß-sheet content/ % ([2]; ATR-FT-IR): 53% and 52.93% | TEM: 1= fibrils, 0= aggregates (micelle), 0.5 = aggregates and fibrils, -1 = nothing obersved, STD prep [3]: 1

QCKFKQFFNMWQ [CK10]
Tht rel to blank (42.1851851851852) [1, 4]: 25.38 | Tht rel to blank (42.1851851851852) [1, 6]: 25.38 | Tht category (> 1.5 to blank = +) ([1]; category 1/0): 1 (ThT. Cat is 1, if Rel. ThT >2) | Tht rel to blank (42.1851851851852) [1, 5]: 25.38 | FTIR ß-sheet content/ % [2]: 41.78% | FTIR ß-sheet content/ % ([2]; ATR-FT-IR): 42% and 41.78% | TEM: 1= fibrils, 0= aggregates (micelle), 0.5 = aggregates and fibrils, -1 = nothing obersved, STD prep [3]: 0.5

KIKIKIQINMWQ [VH9]
Tht rel to blank (42.1851851851852) [1, 4]: 1.586

CKFKFQFW [TM72]
Tht rel to blank (42.1851851851852) [1, 4]: 1.802 | FTIR ß-sheet content/ % ([2]; ATR-FT-IR): 43%

CKFKQFF [CK15]
Tht rel to blank (42.1851851851852) [1, 4]: 1.34 | Tht rel to blank (42.1851851851852) [1, 6]: 1.34 | Tht category (> 1.5 to blank = +) ([1]; category 1/0): 0 (ThT-inactive (N-Fold <2)) | Tht rel to blank (42.1851851851852) [1, 5]: 1.34 | FTIR ß-sheet content/ % [2]: 45.41% | FTIR ß-sheet content/ % ([2]; ATR-FT-IR): 45.41% | TEM: 1= fibrils, 0= aggregates (micelle), 0.5 = aggregates and fibrils, -1 = nothing obersved, STD prep [3]: 0.5

QCKAKAQA [CK24]
Tht rel to blank (42.1851851851852) [1, 4]: 1.319 | Tht category (> 1.5 to blank = +) ([1]; category 1/0): 0 (ThT-inactive (N-Fold <2)) | Tht rel to blank (42.1851851851852) [1, 5]: 1.319 | TEM: 1= fibrils, 0= aggregates (micelle), 0.5 = aggregates and fibrils, -1 = nothing obersved, STD prep [3]: 0.5

MKIKIQINM [TM41]
Tht category (> 1.5 to blank = +) ([1]; category 1/0): 0 (ThT-inactive (N-Fold <2)) | Tht rel to blank (42.1851851851852) [1, 5]: 1.327 | TEM: 1= fibrils, 0= aggregates (micelle), 0.5 = aggregates and fibrils, -1 = nothing obersved, STD prep [3]: 1

QCKFKFQF [CK9]
Tht rel to blank (42.1851851851852) [1, 4]: 2.014 | Tht category (> 1.5 to blank = +) ([1]; category 1/0): 1 (ThT. Cat is 1, if Rel. ThT >2) | Tht rel to blank (42.1851851851852) [1, 5]: 2.014 | TEM: 1= fibrils, 0= aggregates (micelle), 0.5 = aggregates and fibrils, -1 = nothing obersved, STD prep [3]: 1

KFKFQFNMW
Tht category (> 2 to blank = +) ([1]; Fig S10 panel D): 0 (ThT-inactive (N-Fold <2)) | ThT Cat, ([1]; ThT category, 1 if Rel. ThT >2): 0 (ThT-inactive (N-Fold <2)) | ThT Cat. ([1]; ThT category, 1 if Rel. ThT >2): 0 (ThT-inactive (N-Fold <2)) | ThT Cat. / ThT-Fluorescence (categorical) ([1]; ThT-active if fluorescence at least twice the control): 0 (ThT-inactive (N-Fold <2)) | b -sheet / % ([2]; Fig. S7 panel A, β-sheet content by ATR-FT-IR): 38.191% | TEM 2cat ([3]; Fig S10 panel D): 1 | Fibril / Fibril Formation ([3]; TEM, 1 mg/mL, uranyl acetate stain, qualitative): 1 | Fibril ([3]; TEM, 0 = non-fibrillar): 1 | Fibril ([3]; TEM, 0 = non-fibrillar structures): 1 | TEM 2cat ([3]; category: fibrils present or non-fibrillar): 1

CKYKYQY [KB2]
Tht category (> 1.5 to blank = +) ([1]; category 1/0): 1 (ThT. Cat is 1, if Rel. ThT >2) | Tht rel to blank (42.1851851851852) [1, 5]: 3.119 | TEM: 1= fibrils, 0= aggregates (micelle), 0.5 = aggregates and fibrils, -1 = nothing obersved, STD prep [3]: 0

KAKAKAQA [TG15]
Tht rel to blank (42.1851851851852) [1, 4]: 1.151 | Tht rel to blank (42.1851851851852) [1, 6]: 1.151 | Tht category (> 1.5 to blank = +) ([1]; category 1/0): 0 (ThT-inactive (N-Fold <2)) | TEM: 1= fibrils, 0= aggregates (micelle), 0.5 = aggregates and fibrils, -1 = nothing obersved, STD prep [3]: 0
